Data on 16 compounds can be found in patent US5296591A, “Trifluoromethylketone derivatives, processes for preparation thereof and use thereof” (Fujisawa Pharmaceutical Co., Ltd., priority 1990, dated 1994).

pIC50: −log10 of the molar value. Read-outs that look alike come from different tables or passages of the source.

Experiment [1] deals with T1, porcine pancreas elastase (Type IV) (Sus scrofa, UniProt P00772).
T1 construct: purchased Sigma Chemicals Co; host or cells: porcine pancreas (from the enzyme's name)
T1 sequence (P00772 27-266): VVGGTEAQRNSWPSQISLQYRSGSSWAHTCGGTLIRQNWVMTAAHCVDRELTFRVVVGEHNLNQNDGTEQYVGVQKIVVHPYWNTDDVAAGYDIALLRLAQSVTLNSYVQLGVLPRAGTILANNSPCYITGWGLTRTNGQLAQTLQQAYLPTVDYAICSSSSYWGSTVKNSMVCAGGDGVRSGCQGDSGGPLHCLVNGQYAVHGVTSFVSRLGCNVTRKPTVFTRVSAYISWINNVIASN
As to the kind of experiment: Protease inhibition assay (in vitro), porcine pancreas elastase. Conditions: substrate N-succinyl-(Ala)3-p-nitroanilide, enzyme 5 μg/ml final. Type of experiment: biochemical. The procedure: (§1) A buffer used throughout the assay was 0.1M HEPES (4-(2-hydroxyethyl)-1-piperazineethanesulfonic acid) containing 0.5M NaCl, pH 7.5. Twenty-five microliters of 2 mM methoxysuccinyl-(Ala)2 -Pro-Val-p-nitroanilide (100 mM of dimethyl sulfoxide solution were diluted in the buffer) and 50 μl of sample (10 μl of sample in organic solvent was diluted 5-fold in the buffer) were mixed in wells of 96 well-microliter plate. An absorbance of the mixture in wavelength at 415 nm was measured by a microplate reader (Corona Electric Co., Ibaraki, Japan). After the measurement, 25 μl of 6 μg/ml human sputum elastase (HSE) was added and the mixture was allowed to stand for 30 minutes at room temperature. Then, the absorbance at 415 nm was measured. Percent inhibition by drug was determined by 100×(1-"r" inhibitor present/"r" inhibitor absent), where "r" is absorbance after 30 minutes incubation minus absorbance before enzyme addition. Effect of inhibitors against porcine pancreas elastase (Type IV, 5 μg/ml final) was assayed similarly using N-succinyl-(Ala)3 -p-nitroanilide. HSE was obtained from Elastin Products Company Inc., Mo., U.S.A. All other substrates and protease were purchased from Sigma Chemicals Co.

The subject of experiment [2] is human sputum elastase-induced lung hemorrhage in hamsters. As to the kind of experiment: Elastase-induced pulmonary damage (lung hemorrhage) in hamsters. Type of experiment: in vivo, hamster. Particulars: 5 min predose; for Hemorrhage (OD541 nm): BAL hemoglobin 3 h after elastase. The method, then: Hamsters under pentobarbital anesthesia were used. Saline or saline-containing human sputum elastase was instilled intratracheally via a small incision in the ventral neck region using 1-ml syringe with a 27-gauge needle. After 3 hours, animals were sacrificed by CO2 asphyxiation, each animal's trachea was reexposed. The lungs were then laveged using a 2.5-ml aliquot of saline and then withdrawing the saline, yielding a final volume of approximately 1.5 ml bronchoalveolar lavage (BAC) fluid from each animal.
The cells of BAL fluid were collected by centrifugation and were then diluted with distilled water to disrupt, and the hemoglobin contents determined spectrophotometrically at 541 nm.
Test drugs were dissolved in saline or methyl cellulose, and instilled intratracheally in the same manner as used to instill elastase, at 5 minutes before instillation of elastase.

Experiment [3] deals with T2, human sputum elastase (HSE) (Homo sapiens, UniProt P08246).
T2 construct: HSE was obtained from Elastin Products Company Inc., Mo., U.S.A; purchased Elastin Products Company Inc; host or cells: human sputum (from the enzyme's name)
T2 sequence (P08246 30-267): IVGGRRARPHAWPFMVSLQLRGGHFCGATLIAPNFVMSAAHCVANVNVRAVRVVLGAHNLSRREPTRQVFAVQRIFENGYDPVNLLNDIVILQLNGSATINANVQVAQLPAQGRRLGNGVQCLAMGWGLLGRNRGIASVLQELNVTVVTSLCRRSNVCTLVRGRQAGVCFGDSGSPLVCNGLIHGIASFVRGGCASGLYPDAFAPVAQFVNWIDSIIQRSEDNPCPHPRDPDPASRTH
As to the kind of experiment: Protease inhibition assay (in vitro), human sputum elastase. Particulars: substrate methoxysuccinyl-(Ala)2-Pro-Val-p-nitroanilide, 30 min, room temperature, pH 7.5. Format: biochemical. The method, then:
as §1

The mark [4] stands for this setting: read-out: IC50 Porcine pancreas elastase.

A word on the pIC50: it is the IC50 on a negative log10 scale, so that one unit is a factor of ten. As for “3(RS)-[[4-(Carboxymethylaminocarbonyl)phenylaminocarbonyl]-L-valyl-L-prolyl] amino-1,1,1-trifluoro-2-oxo-4-methylpentane [Example 23]”, the pIC50 is 5.62 in experiment [1] (setting [4]) and 6.09 in experiment [3]. The “% inhibition of elastase-induced lung hemorrhage” value in experiment [2] (1 μg/site intratracheal) was 16.0%; in experiment [2] (10 μg/site intratracheal), 75.6%; in experiment [2] (100 μg/site intratracheal), 102.1%. Besides, the “Hemorrhage (OD541 nm)” value in experiment [2] (1 μg/site intratracheal) amounted to 9.435 ± 0.941 OD541 nm; in experiment [2] (10 μg/site intratracheal) it was 3.412 ± 1.31 OD541 nm; in experiment [2] (100 μg/site intratracheal) it was 0.7258 ± 0.303 OD541 nm. Also, the “ED50 elastase-induced lung hemorrhage” value in experiment [2] (intratracheal) was 3.2 μg/site.
As for `CC(C)C(NC(=O)[C@@H]1CCCN1C(=O)[C@@H](NC(=O)c1ccc(C(=O)NCC(=O)OCc2ccccc2)cc1)C(C)C)C(=O)C(F)(F)F` (mixture of isomers) [Example 1, 3(RS)-[[4-[(benzyloxycarbonyl)methylaminocarbonyl]-phenylcarbonyl]-L-valyl-L-prolyl]amino-1,1,1-trifluoro-4-methyl-2-oxopentane], the results for the pIC50 in experiment [1] (setting [4]) and in experiment [3] were 5.36 and 6.35, respectively.
For the compound `CC(C)C(NC(=O)[C@@H]1CCCN1C(=O)[C@@H](NC(=O)c1ccc(C(=O)NCc2ccc(Cl)cc2)cc1)C(C)C)C(=O)C(F)(F)F` (mixture of isomers) [Example 5, 3(RS)-[[4-[(4-Chlorobenzyl)aminocarbonyl]-phenylcarbonyl]-L-valyl-L-prolyl]amino-1,1,1-trifluoro-4-methyl-2-oxopentane], the values for the pIC50 in experiment [1] (setting [4]) and in experiment [3] were 5.29 and 6.52, respectively.
The matching figures for `CC(C)C(NC(=O)[C@@H]1CCCN1C(=O)[C@@H](NC(=O)c1ccc(C(=O)NCc2ccc([N+](=O)[O-])cc2)cc1)C(C)C)C(=O)C(F)(F)F` (mixture of isomers) [Example 6, 3(RS)-[[4-[(4-Nitrobenzyl)aminocarbonyl]phenylcarbonyl]-L-valyl-L-prolyl]amino-1,1,1-trifluoro-4-methyl-2-oxopentane]: 5.16 and 6.37.
In the case of `CC(C)C(NC(=O)[C@@H]1CCCN1C(=O)[C@@H](NC(=O)c1ccc(C(=O)Nc2ccc(Cl)cc2)cc1)C(C)C)C(=O)C(F)(F)F` (mixture of isomers) [Example 7, 3(RS)-[[4-[(4-Chlorophenyl)aminocarbonyl]phenylcarbonyl]-L-valyl-L-prolyl]amino-1,1,1-trifluoro-4-methyl-2-oxopentane], the figures for the pIC50 in experiment [1] (setting [4]) and in experiment [3] were 5.42 and 6.49, respectively.
The like results for `CC(C)C(NC(=O)[C@@H]1CCCN1C(=O)[C@@H](NC(=O)c1ccc(C(=O)N[C@@H](CCC(=O)OCc2ccccc2)C(=O)OCc2ccccc2)cc1)C(C)C)C(=O)C(F)(F)F` (mixture of isomers) [Example 10, 3(RS)-[[4-[[1(S),3-bis(Benzyloxycarbonyl)propyl]aminocarbonyl]phenylcarbonyl]-L-valyl-L-prolyl]amino-1,1,1-trifluoro-4-methyl-2-oxopentane] were, in that order, 3.51 and 5.10.
The matching figures for `CC(C)C(NC(=O)[C@@H]1CCCN1C(=O)[C@@H](NC(=O)c1ccc(C(=O)N[C@@H](CCC(=O)O)C(=O)O)cc1)C(C)C)C(=O)C(F)(F)F` (mixture of isomers) [Example 17, 3(RS)-[[4-[(1(S),3-Dicarboxypropyl)aminocarbonyl]-phenylcarbonyl]-L-valyl-L-prolyl]amino-1,1,1-trifluoro-4-methyl-2-oxopentane]: 5.47 and 5.96.
As to `CC(C)C(NC(=O)[C@@H]1CCCN1C(=O)[C@@H](NC(=O)c1ccc(C(=O)NCc2ccc(N)cc2)cc1)C(C)C)C(=O)C(F)(F)F` (mixture of isomers) [Example 18, 3(RS)-[[4-[(4-aminobenzyl)aminocarbonyl]phenylcarbonyl]-L-valyl-L-prolyl]amino-1,1,1-trifluoro-4-methyl-2-oxopentane], the values for the pIC50 in experiment [1] (setting [4]) and in experiment [3] were 5.42 and 6.21, respectively.
Turning to `CC(C)C(NC(=O)[C@@H]1CCCN1C(=O)[C@@H](NC(=O)Nc1ccc(C(=O)NCC(=O)OCc2ccccc2)cc1)C(C)C)C(=O)C(F)(F)F` (mixture of isomers) [Example 22, 3(RS)-[[4-(Benzyloxycarbonylmethylaminocarbonyl)phenylaminocarbonyl]-L-valyl-L-prolyl]amino-1,1,1-trifluoro-2-oxo-4-methylpentane], the pIC50 in experiment [1] (setting [4]) was 5.31; in experiment [3] it was 6.17.
The matching figures for `CC(C)C(NC(=O)[C@@H]1CCCN1C(=O)[C@@H](NC(=O)Nc1ccc(C(=O)NCC(=O)N(C)C)cc1)C(C)C)C(=O)C(F)(F)F` (mixture of isomers) [Example 24, 3(RS)-[[4-(Dimethylaminocarbonylmethylaminocarbonyl)phenylaminocarbonyl]-L-valyl-L-prolyl]amino-1,1,1-trifluoro-2-oxo-4-methylpentane]: 5.42 and 5.85.
For `CC(C)C(NC(=O)[C@@H]1CCCN1C(=O)[C@@H](NC(=O)c1ccc(C(=O)NCCCC(=O)OCC(=O)c2ccccc2)cc1)C(C)C)C(=O)C(F)(F)F` (mixture of isomers) [Example 3, 3(RS)-[[4-[(3-Benzoylmethoxycarbonyl)propylaminocarbonyl]phenylcarbonyl]-L-valyl-L-prolyl]amino-1,1,1-trifluoro-4-methyl-2-oxopentane], the pIC50 in experiment [1] (setting [4]) is 5.06; in experiment [3] it was 6.01.
As for `CC(C)C(NC(=O)[C@@H]1CCCN1C(=O)[C@@H](NC(=O)c1ccc(C(=O)NN2CCOCC2)cc1)C(C)C)C(=O)C(F)(F)F` (mixture of isomers) [Example 4, 3(RS)-[[4-[(4-Morpholino)aminocarbonyl]-phenylcarbonyl]-L-valyl-L-prolyl]amino-1,1,1-trifluoro-4-methyl-2-oxopentane], the pIC50 is 5.54 in experiment [1] (setting [4]) and 5.85 in experiment [3].
Regarding `CC(C)C(NC(=O)[C@@H]1CCCN1C(=O)[C@@H](NC(=O)c1ccc(C(=O)N[C@H](Cc2ccccc2)C(=O)OCc2ccccc2)cc1)C(C)C)C(=O)C(F)(F)F` (mixture of isomers) [Example 8, 3(RS)-[[4-[[(1(R)-Benzyloxycarbonyl)-2-phenyl]ethylaminocarbonyl]phenylcarbonyl]-L-valyl-L-prolyl]amino-1,1,1-trifluro-4-methyl-2-oxopentane], the pIC50 in experiment [1] (setting [4]) was 4.80; in experiment [3] it was 6.06.
Take `CC(C)C(NC(=O)[C@@H]1CCCN1C(=O)[C@@H](NC(=O)c1ccc(C(=O)N[C@@H](Cc2ccccc2)C(=O)OCc2ccccc2)cc1)C(C)C)C(=O)C(F)(F)F` (mixture of isomers) [Example 9, 3(RS)-[[4-[[(1(S)-Benzyloxycarbonyl)-2-phenyl]ethylaminocarbonyl]phenylcarbonyl]-L-valyl-L-prolyl]amino-1,1,1-trifluoro-4-methyl-2-oxopentane]: the pIC50 was 5.02 in experiment [1] (setting [4]) and 6.06 in experiment [3].
With `CC(C)C(NC(=O)[C@@H]1CCCN1C(=O)[C@@H](NC(=O)c1ccc(C(=O)NCC(=O)O)cc1)C(C)C)C(=O)C(F)(F)F` (single isomer, unassigned) [Example 15, 3(R or S)-[[4-(Carboxymethylaminocarbonyl)phenylcarbonyl]-L-valyl-L-prolyl]amino-1,1,1-trifluoro-2-oxo-4-methylpentane], the values for the pIC50 in experiment [1] (IC50 Porcine pancreas elastase) and in experiment [3] were 5.70 and 6.21, respectively.
As to `CC(C)C(NC(=O)[C@@H]1CCCN1C(=O)[C@@H](NC(=O)c1ccc(C(=O)NCC(=O)O)cc1)C(C)C)C(=O)C(F)(F)F` (single isomer, unassigned) [Example 16, 3(R or S)-[[4-(Carboxymethylaminocarbonyl)phenylcarbonyl]-L-valyl-L-prolyl]amino-1,1,1-trifluoro-2-oxo-4-methylpentane], the pIC50 in experiment [1] (IC50 Porcine pancreas elastase) was 4.52; in experiment [3], 5.15.
